According to paper PMC6328429, “Synthesis of a benzoxazinthione derivative of tanaproget and pharmacological evaluation for PET imaging of PR expression” (EJNMMI Radiopharmacy and Chemistry, 2019):
Values joined by “and” are separate entries in the source; they are usually repeats but may differ in a detail not shown here. Equal entries are not always repeated. “Also recorded” adds a separate entry of the source. Where two headings read alike, the source gives them in different places.

Key:
[1] = Stability of formulated radioligand; assay type: physicochemical; details: up to 4 h after formulation; 10% (v/v) EtOH/PBS
[2] = Distribution coefficient analysis (LogD7.4), n-octanol/PBS; assay type: physicochemical
Description: Radioligand [^18F]2 (0.03 MBq, 1 μL, in EtOH) was mixed with PBS (500 μL) and n-octanol (500 μL). The sample was vortexed (10 min) followed by centrifugation (1×g, 10 min). Three aliquots (100 μL) from each layer were taken and counts measured using a 2480 WIZARD2 Automatic Gamma Counter (PerkinElmer, UK). Experiment was repeated in triplicate in n = 3 determinations (supporting information, Additional file 1: Table S1). Distribution coefficient (LogD7.4) was calculated as the logarithm of the ratio between CPM of the octanol and buffer phase.

[3] = In vitro radioactive metabolite analysis in mouse liver microsomes; assay type: in vitro ADME; details: MLM, 60 min, radio-HPLC integration
Description: Radioligand [^18F]2 (3 MBq, ca. 80 μL), mouse liver microsomes (50 μL, 1 mg/mL), NADPH regeneration system A (50 μL), NADPH regeneration system B (10 μL), PBS 0.5 M pH 7.5 (200 μL) and water (ca. 200 μL) were added to a plastic 1.5 mL tube. The mixture was incubated at 37 °C for 60 min and transferred into a plastic centrifuge tube (10 mL). Proteins were precipitated with ice-cold MeOH (2 mL) and the mixture was centrifuged (12,000 g, 3 min) to pellet the precipitate. The supernatant was removed, evaporated to dryness and the residue was suspended in 37% MeCN + 0.1%TFA / 63% Water + 0.1%TFA for RP-HPLC using gradient 3 (supporting information, section 10.3). The experiment was performed in n = 3 determinations. Extraction efficiency of radioactivity from the protein pellet was calculated to be 93.5% ± 1.6 (Additional file 1: Table S3). HPLC data is shown in the supporting information (Additional file 1: Figure S35).

[4] = Ex vivo biodistribution in C57BL/6 female mice; details: 50 min p.i.
Description: Pubertal female C57BL/6 mice were injected intraperitoneally with 30 IU gonadotropins, 15 IU Follicle-stimulating hormone (FSH) and 15 IU luteinizing hormone (LH) followed by 5 IU […] (hCG) after 48 h (Sigma-Aldrich, Gillingham, UK). After the imaging studies, the ovaries were removed and snap-frozen in liquid nitrogen for later analysis of protein expression by western blot.
[^18F]2 (455 ± 62 kBq) was injected into the tail vail of female C57BL/6 mice. Whilst under anaesthesia the animals were sacrificed and tissues of interest such as, heart, lung, liver, spleen, kidneys, stomach, muscle, bone, ovary, small intestines and large intestines were collected in pre-weighed counting tubes. Radioactivity within tissue samples was counted in a gamma spectrometer (Automatic Gamma Counter, Wizard 3 Wallac), and then weighed to determine the mass of the tissue. CPM for each tissue sample was normalised to the total injected dose of radioactivity to the animal to give %ID (injected dose), and then normalised to the weight of the counted tissue to give the radioactivity uptake of the tissue as %ID/g. Tabulated values shown in Additional file 1: Table S2.

[5] = Dynamic PET/CT imaging in C57BL/6 female mice; assay type: in vivo; details: PET images acquired over 50 min
Description: Mice were anaesthetised with 3–5% isoflurane at a flow rate of 1 L/min, and then reduced to 1.5–2% isoflurane for anaesthesia maintenance during imaging. [^18F]2 was injected via the tail vein at the commencement of a dynamic PET scan using a dedicated small animal PET/CT scanner (Sedecal SuperArgus2R, Sedecal, Spain). Images were acquired over a 50 min imaging sequence, followed by CT imaging acquired in 514 projections for anatomic coregistration. PET emission data were corrected for decay and dead time and reconstructed using 3D-OSEM. Data were analysed based on regions of interest (ROI) drawn within the tumours and tissue. Time-activity curves (TAC) were calculated as an average form the region of interest analysis of three mice (Additional file 1: Figure S34). Data was analysed using AMIDE software (Loening and Gambhir, [2003]) and VivoQuant (InVicro, MA, USA) and regions of interest (ROIs) were selected by hand, and the count densities were averaged for each frame to obtain a TAC for each ROI.

T47D cells = experiment: Cell uptake study of radioligand in breast cancer cell lines; assay type: cell-based, human
Description: T47D, MCF-7 and MDA-MB-231 cells (1 × 10^5) were plated into 6-well plates and used for receptor binding assays at 60–80% confluence. Cell medium was removed and cells were washed with cold PBS buffer. [^18F]2 (37 kBq/mL) was added to individual wells and cells were incubated at 37 °C in a humidified atmosphere of 5% CO2 for 60 min. Cells were co-incubated with 0.01–1 μM of cold progesterone for the blocking study. Cells were then washed 3 times with ice-cold PBS and lysed with RIPA buffer. Radioactivity was determined using a gamma spectrometer (Automatic Gamma counter, Wizard 3 Wallac). Radioactivity was normalised to protein content determined using a BCA 96-well plate assay (Thermo Fisher Scientific Inc., USA) and expressed as a percentage of total radioactivity per mg of protein.

[6] = PR-induced (PR+, gonadotropin stimulated) mice, mean ± SEM

CC1(C)OC(=S)Nc2ccc(-c3cccnc3[18F])cc21 [[^18F]2]
Stability after formulation [1]: 99.7% | logD ([2]; pH 7.4, PBS (pH 7.4) / octan-1-ol, three repeats in triplicate, read-out: Distribution coefficient (LogD7.4), mean ± SD): 1.69 ± 0.1 | logD ([2]; pH 7.4, single measurements (Run 1-3, a-c), read-out: LogD7.5): 1.67 | [^18F]2 parent (Rt = ca 12:21 min:sec), single run ([3]; individual runs / representative chromatogram): 33.3% and 36.3% and 36.6% | [^18F]2 parent (Rt = ca 12:21 min:sec), mean ± SD ([3]; n = 3): 35.4 ± 1.8% | Bone uptake ratio, gonadotropin-stimulated vs control mice [4]: 2 fold | Biodistribution, blood [4, 6]: 1.30 ± 0.30 %ID/g | Biodistribution, bone [4, 6]: 31.21 ± 5.99 %ID/g | Biodistribution, brain [4, 6]: 0.40 ± 0.09 %ID/g | Biodistribution, heart [4, 6]: 1.47 ± 0.31 %ID/g | Biodistribution, kidney [4, 6]: 3.89 ± 1.26 %ID/g | Biodistribution, large intestine [4, 6]: 13.25 ± 1.70 %ID/g | Biodistribution, liver [4, 6]: 14.48 ± 4.91 %ID/g | Biodistribution, lungs [4, 6]: 1.33 ± 0.28 %ID/g | Biodistribution, muscle [4, 6]: 1.55 ± 0.44 %ID/g | Biodistribution, small intestine [4, 6]: 36.08 ± 1.21 %ID/g | Biodistribution, spleen [4, 6]: 0.15 ± 0.06 %ID/g | Biodistribution, stomach [4, 6]: 3.41 ± 0.26 %ID/g | Biodistribution, urine [4, 6]: 12.93 ± 12.56 %ID/g | Biodistribution, blood ([4]; control (PR-) mice, mean ± SEM): 0.01 ± 0.000 %ID/g | Biodistribution, bone ([4]; control (PR-) mice, mean ± SEM): 15.37 ± 3.47 %ID/g | Biodistribution, brain ([4]; control (PR-) mice, mean ± SEM): 0.41 ± 0.09 %ID/g | Biodistribution, heart ([4]; control (PR-) mice, mean ± SEM): 1.40 ± 0.33 %ID/g | Biodistribution, kidney ([4]; control (PR-) mice, mean ± SEM): 4.02 ± 1.18 %ID/g | Biodistribution, large intestine ([4]; control (PR-) mice, mean ± SEM): 1.30 ± 0.07 %ID/g | Biodistribution, liver ([4]; control (PR-) mice, mean ± SEM): 6.19 ± 1.74 %ID/g | Biodistribution, lungs ([4]; control (PR-) mice, mean ± SEM): 1.28 ± 0.35 %ID/g | Biodistribution, muscle ([4]; control (PR-) mice, mean ± SEM): 0.91 ± 0.19 %ID/g | Biodistribution, ovary ([4]; control (PR-) mice, mean ± SEM): 1.32 ± 0.22 %ID/g | Biodistribution, small intestine ([4]; control (PR-) mice, mean ± SEM): 30.49 ± 3.05 %ID/g | Biodistribution, spleen ([4]; control (PR-) mice, mean ± SEM): 0.99 ± 0.28 %ID/g | Biodistribution, stomach ([4]; control (PR-) mice, mean ± SEM): 0.73 ± 0.17 %ID/g | Biodistribution, urine ([4]; control (PR-) mice, mean ± SEM): 10.94 ± 8.40 %ID/g | Distribution of radioactivity in PET images [5]: Extensive skeletal uptake; also recorded: accumulation of radioactivity in the liver and small intestines, but also in the spine, joints and skull | Uptake of radioligand in cell lines (T47D cells; T47D (PR++) compared to MCF7 (PR+) and MDA-MB-231 (PR-), 60 min, 37 °C): significant accumulation in T47D cells | Uptake in T47D cells on co-incubation with progesterone (blocking) (T47D cells; T47D cells, progesterone 0.01–0.1 μM): decreased in a dose-dependent manner
